This note sets out measurements from US9580415B2, “Compounds” (Proximagen Limited, priority 2013, dated 2017).

The target in series [1] is human SSAO (Homo sapiens (Human), UniProt Q16853). Description: SSAO enzyme inhibition assay (benzylamine substrate; hydrogen peroxide/HRP or aldehyde detection). It is filed as biochemical. To be noted: purified recombinantly expressed human SSAO, RT. How it is done:
All primary assays were performed at RT. with purified recombinantly expressed human SSAO. Enzyme was prepared essentially as described in Öhman et al. (Protein Expression and Purification 46 (2006) 321-331). In addition, secondary- and selectivity assays were performed using SSAO prepared from various tissues or purified rat recombinant SSAO. The enzyme activity was assayed with benzylamine as substrate by measuring either benzaldehyde production, using ^14C-labeled substrate, or by utilizing the production of hydrogen peroxide in a horseradish peroxidase (HRP) coupled reaction. Briefly, test compounds were dissolved in dimethyl sulfoxide (DMSO) to a concentration of 10 mM. Dose-response measurements were assayed by either creating 1:10 serial dilutions in DMSO to produce a 7 point curve or by making 1:3 serial dilutions in DMSO to produce 11 point curves. The top concentrations were adjusted depending on the potency of the compounds and subsequent dilution in reaction buffer yielded a final DMSO concentration ≦2%.
In a horseradish peroxidase (HRP) coupled reaction, hydrogen peroxide oxidation of 10-acetyl-3,7-dihydroxyphenoxazine produced resorufin, which is a highly fluorescent compound (Zhout and Panchuk-Voloshina. Analytical Biochemistry 253 (1997) 169-174; Amplex® Red Hydrogen Peroxide/peroxidase Assay kit, Invitrogen A22188). Enzyme and compounds in 50 mM sodium phosphate, pH 7.4 were set to pre-incubate in flat-bottomed microtiter plates for approximately 15 min before initiating the reaction by addition of a mixture of HRP, benzylamine and Amplex reagent. Benzylamine concentration was fixed at a concentration corresponding to the Michaelis constant, determined using standard procedures. Fluorescence intensity was then measured at several time points during 1-2 h, exciting at 544 nm and reading the emission at 590 nm. For the human SSAO assay final concentrations of the reagents in the assay wells were: SSAO enzyme 1 ug/ml, benzylamine 100 uM, Amplex reagent 20 uM, HRP 0.1 U/mL and varying concentrations of test compound. The inhibition was measured as % decrease of the signal compared to a control without inhibitor (only diluted DMSO). The background signal from a sample containing no SSAO enzyme was subtracted from all data points. Data was fitted to a four parameter logistic model and IC50 values were calculated using the GraphPad Prism 4 or XLfit 4 programs.
SSAO activity was assayed using […] benzylamine and analysed by measuring radioactive benzaldehyde. In a white 96-well optiplate (Packard), 20 uL of diluted test compound was pre-incubated at room temperature with 20 uL SSAO enzyme for approximately 15 min with continuous agitation. All dilutions were made with PBS. The reaction was initiated by adding 20 uL of the benzylamine substrate solution containing Benzylamine hydrochloride (CFA589, GE Healthcare). The plate was incubated for 1 h as above after which the reaction was stopped by acidification (10 uL 1M aq HCl). Then 90 uL Micro Scint-E solution (Perkin-Elmer) was added to each well and the plate was continuously mixed for 15 min. Phase separation occurred instantly and activity was read in a Topcount scintillation counter (Perkin-Elmer). In the final reaction well, the human recombinant SSAO concentration was 10 ug/ml. In order to optimize sensitivity, the substrate concentration was decreased as compared to the HRP coupled assay in order to get a higher fraction of radioactive product. In the human SSAO assay, benzylamine concentration was 40 uM (0.2 uCi/mL). Data was analysed as above.

Series [2] has as its target hERG K+ channel (Homo sapiens (Human), UniProt Q12809). Put plainly: hERG assay, IonWorks patch clamp electrophysiology. Type of series: cell-based. As to conditions: Chinese Hamster Lung cell line stably expressing hERG, IonWorks Quattro, max 11 uM. How it is done: Compounds of the invention were tested for inhibition of the human ether a go-go related gene (hERG) K^+ channel using IonWorks patch clamp electrophysiology. 8 Point concentration-response curves were generated on two occasions using 3-fold serial dilutions from the maximum assay concentration (11 uM). Electrophysiological recordings were made from a Chinese Hamster Lung cell line stably expressing the full length hERG channel. Single cell ion currents were measured in the perforated patch clamp configuration (100 ug/mL amphoterocin) at room temperature using an IonWorks Quattro instrument. The internal solution contained 140 mM KCl, 1 mM MgCl2, 1 mM EGTA and 20 mM HEPES and was buffered to pH 7.3. The external solution contained 138 mM NaCl, 2.7 mM KCl, 0.9 mM CaCl2, 0.5 mM MgCl2, 8 mM Na2HPO4 and 1.5 mM KH2PO4, and was buffered to pH 7.3. Cells were clamped at a holding potential of […] for 30 s and then stepped to +40 mV for 1 s. This was followed by a hyperpolarising step of 1 s to […] to evoke the hERG tail current. This sequence was repeated 5 times at a frequency of 0.25 Hz. Currents were measured from the tail step at the 5th pulse, and referenced to the holding current. […] A minimum of 17 cells were required for each pIC50 curve fit.

The structures appear in SMILES notation.

Chain of hERG K+ channel (Q12809 whole entry): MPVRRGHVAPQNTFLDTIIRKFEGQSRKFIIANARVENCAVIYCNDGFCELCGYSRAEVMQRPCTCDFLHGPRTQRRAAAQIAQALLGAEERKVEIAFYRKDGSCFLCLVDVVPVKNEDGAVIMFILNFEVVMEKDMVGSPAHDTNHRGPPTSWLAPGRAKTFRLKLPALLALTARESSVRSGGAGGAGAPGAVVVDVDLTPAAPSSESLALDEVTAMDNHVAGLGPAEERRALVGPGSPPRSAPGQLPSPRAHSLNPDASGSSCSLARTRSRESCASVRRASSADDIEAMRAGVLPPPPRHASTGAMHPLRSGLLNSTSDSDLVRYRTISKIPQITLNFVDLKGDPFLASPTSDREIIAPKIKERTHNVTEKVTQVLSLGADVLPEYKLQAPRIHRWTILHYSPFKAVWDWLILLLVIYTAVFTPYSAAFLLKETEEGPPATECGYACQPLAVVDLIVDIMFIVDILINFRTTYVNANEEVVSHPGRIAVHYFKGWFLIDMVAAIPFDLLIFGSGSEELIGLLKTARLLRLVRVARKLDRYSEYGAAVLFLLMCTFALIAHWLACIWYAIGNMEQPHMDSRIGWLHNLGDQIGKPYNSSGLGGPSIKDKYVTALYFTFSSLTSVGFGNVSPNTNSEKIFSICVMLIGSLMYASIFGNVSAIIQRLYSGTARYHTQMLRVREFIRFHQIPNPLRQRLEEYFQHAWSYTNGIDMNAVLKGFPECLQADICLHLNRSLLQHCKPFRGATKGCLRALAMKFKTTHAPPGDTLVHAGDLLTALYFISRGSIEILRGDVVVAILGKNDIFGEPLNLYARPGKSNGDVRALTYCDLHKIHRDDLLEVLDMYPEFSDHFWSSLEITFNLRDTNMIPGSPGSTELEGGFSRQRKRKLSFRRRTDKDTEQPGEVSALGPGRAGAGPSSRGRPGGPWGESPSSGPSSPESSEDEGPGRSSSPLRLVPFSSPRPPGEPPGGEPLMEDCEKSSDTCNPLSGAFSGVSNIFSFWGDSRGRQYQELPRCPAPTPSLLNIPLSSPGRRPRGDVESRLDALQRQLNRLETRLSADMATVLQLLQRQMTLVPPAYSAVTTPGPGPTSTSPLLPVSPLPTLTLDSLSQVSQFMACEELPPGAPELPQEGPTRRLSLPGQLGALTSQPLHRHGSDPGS
Chain of human SSAO (Q16853 whole entry): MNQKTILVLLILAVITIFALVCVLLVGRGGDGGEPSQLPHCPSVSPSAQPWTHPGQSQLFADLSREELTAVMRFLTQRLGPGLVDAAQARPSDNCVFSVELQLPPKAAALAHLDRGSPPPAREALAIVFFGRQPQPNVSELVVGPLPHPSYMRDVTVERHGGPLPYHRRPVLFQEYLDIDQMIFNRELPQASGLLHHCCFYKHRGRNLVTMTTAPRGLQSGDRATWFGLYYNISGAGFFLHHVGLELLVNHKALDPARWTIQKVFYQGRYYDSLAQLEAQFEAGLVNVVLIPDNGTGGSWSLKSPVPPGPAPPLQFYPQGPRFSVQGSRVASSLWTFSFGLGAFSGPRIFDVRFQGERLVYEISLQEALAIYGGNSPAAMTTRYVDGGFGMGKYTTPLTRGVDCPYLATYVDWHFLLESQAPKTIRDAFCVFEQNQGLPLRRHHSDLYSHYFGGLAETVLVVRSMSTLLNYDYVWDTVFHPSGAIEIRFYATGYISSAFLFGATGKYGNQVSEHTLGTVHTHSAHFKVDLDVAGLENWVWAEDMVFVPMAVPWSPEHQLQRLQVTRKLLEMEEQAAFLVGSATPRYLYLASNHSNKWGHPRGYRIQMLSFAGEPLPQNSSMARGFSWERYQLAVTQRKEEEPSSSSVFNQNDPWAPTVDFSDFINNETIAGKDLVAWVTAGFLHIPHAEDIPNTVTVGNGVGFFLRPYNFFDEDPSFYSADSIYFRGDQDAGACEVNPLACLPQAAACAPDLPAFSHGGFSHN

By IC50 is commonly meant the concentration that gives 50% inhibition. In the case of `CN(C)Cc1c(-c2cccnc2)n(-c2ccc(Cl)cc2)c2cnccc12` [Example 20, {[1-(4-Chlorophenyl)-2-(pyridin-3-yl)-1H-pyrrolo[2,3-c]pyridin-3-yl]methyl}dimethyl amine], the concentration for half-maximal inhibition (IC50) in series [1] is 100 to 350 nM.

Take `CN(C)Cc1c(-c2ccncc2)n(-c2ccc(Cl)cc2)c2cnccc12` [Example 19, {[1-(4-Chlorophenyl)-2-(pyridin-4-yl)-1H-pyrrolo[2,3-c]pyridin-3-yl]methyl}dimethyl amine]: the IC50 in series [2] (human, pH 7.3) lay in the range of 1000 to 10000 nM; in series [1] it was 10 to 100 nM. The matching figures for `NC(=O)N1CCC(c2c(-n3cccn3)n(-c3ccc(Cl)cc3)c3cnccc23)CC1` [Example 13, 4-[1-(4-Chlorophenyl)-2-(1H-pyrazol-1-yl)-1H-pyrrolo[2,3-c]pyridin-3-yl]piperidine-1-carboxamide; formic acid]: 1000 to 10000 nM and 10 to 100 nM. For `NC(=O)N1CCC(c2c(-c3cc[nH]n3)n(-c3ccc(Cl)cc3)c3cnccc23)CC1` [Example 8, 4-[1-(4-Chlorophenyl)-2-(1H-pyrazol-3-yl)-1H-pyrrolo[2,3-c]pyridin-3-yl]piperidine-1-carboxamide], in that order: 1000 to 10000 nM and 10 to 100 nM. For `Nc1ccc(-c2c(C3CCNCC3)c3ccncc3n2-c2ccc(Cl)cc2)cn1` [Example 18, 5-[1-(4-Chlorophenyl)-3-(piperidin-4-yl)-1H-pyrrolo[2,3-c]pyridin-2-yl]pyridin-2-amine], the IC50 in series [2] was greater than 10000 nM; in series [1] it was 10 to 100 nM.

`COc1ccc(-c2c(C3CCN(C(N)=O)CC3)c3ccncc3n2-c2ccc(Cl)cc2)cn1` [Example 3, 4-[1-(4-Chlorophenyl)-2-(6-methoxypyridin-3-yl)-1H-pyrrolo[2,3-c]pyridin-3-yl]piperidine-1-carboxamide; formic acid]: the IC50 in series [1] is less than 10 nM. Turning to `NC(=O)N1CCC(c2c(-c3cn[nH]c3)n(-c3ccc(Cl)cc3)c3cnccc23)CC1` [Example 9, 4-[1-(4-Chlorophenyl)-2-(1H-pyrazo1-4-yl)-1H-pyrrolo[2,3-c]pyridin-3-yl]piperidine-1-carboxamide], the IC50 in series [2] is greater than 10000 nM; in series [1], less than 10 nM. With `NC(=O)N1CCC(c2c(-n3cncn3)n(-c3ccc(Cl)cc3)c3cnccc23)CC1` [Example 16, 4-[1-(4-Chlorophenyl)-2-(1H-1,2,4-triazol-1-yl)-1H-pyrrolo[2,3-c]pyridin-3-yl]piperidine-1-carboxamide], the IC50 in series [1] is 100 to 350 nM. The same measure, in the same setting: under `CN1CCN(c2cc(-c3c(C4CCN(C(N)=O)CC4)c4ccncc4n3-c3ccc(Cl)cc3)ccn2)CC1` [Example 5, 4-[1-(4-Chlorophenyl)-2-[2-(4-methylpiperazin-1-yl)pyridin-4-yl]-1H-pyrrolo[2,3-c]pyridin-3-yl]piperidine-1-carboxamide; bis(formic acid)] stands less than 10 nM. Regarding `NC(=O)N1CCC(c2c(-c3ccc(N)nc3)n(-c3ccc(Cl)cc3)c3cnccc23)CC1` [Example 1, 4-[2-(6-Aminopyridin-3-yl)-1-(4-chlorophenyl)-1H-pyrrolo[2,3-c]pyridin-3-yl]piperidine-1-carboxamide], the IC50 is 1000 to 10000 nM in series [2] (human, pH 7.3) and less than 10 nM in series [1]. As for `COc1cc(-c2c(C3CCN(C(N)=O)CC3)c3ccncc3n2-c2ccc(Cl)cc2)ccn1` [Example 4, 4-[1-(4-Chlorophenyl)-2-(2-methoxypyridin-4-yl)-1H-pyrrolo[2,3-c]pyridin-3-yl]piperidine-1-carboxamide; formic acid], the results for the IC50 in series [2] and in series [1] were 100 to 1000 nM and less than 10 nM, respectively. For `Cn1cc(-c2c(C3CCN(C(N)=O)CC3)c3ccncc3n2-c2ccc(Cl)cc2)cn1` [Example 10, 4-[1-(4-Chlorophenyl)-2-(1-methyl-1H-pyrazol-4-yl)-1H-pyrrolo[2,3-c]pyridin-3-yl]piperidine-1-carboxamide; trifluoroacetic acid], the IC50 in series [1] was less than 10 nM.

Turning to `Cn1nccc1-c1c(C2CCN(C(N)=O)CC2)c2ccncc2n1-c1ccc(Cl)cc1` [Example 11, 4-[1-(4-Chlorophenyl)-2-(1-methyl-1H-pyrazol-5-yl)-1H-pyrrolo[2,3-c]pyridin-3-yl]piperidine-1-carboxamide], the IC50 in series [1] is less than 10 nM. For the compound `NC(=O)N1CCC(c2c(-c3ccc(N4CCOCC4)nc3)n(-c3ccc(Cl)cc3)c3cnccc23)CC1` [Example 6, 4-[1-(4-Chlorophenyl)-2-[6-(morpholin-4-yl)pyridin-3-yl]-1H-pyrrolo[2,3-c]pyridin-3-yl]piperidine-1-carboxamide], in series [1], the half-maximal inhibitory concentration (IC50) was less than 10 nM. As to `Clc1ccc(-n2c(-c3nn[nH]n3)c(C3CCNCC3)c3ccncc32)cc1` [Example 21, 4-[1-(4-Chlorophenyl)-2-(2H-1,2,3,4-tetrazol-5-yl)-1H-pyrrolo[2,3-c]pyridin-3-yl]piperidine; bis(trifluoroacetic acid)], the values for the 50% inhibitory concentration (IC50) in series [2] and in series [1] were greater than 10000 nM and 100 to 350 nM, respectively. For the compound `NC(=O)N1CCC(c2c(-n3ccnc3)n(-c3ccc(Cl)cc3)c3cnccc23)CC1` [Example 14, 4-[1-(4-Chlorophenyl)-2-(1H-imidazol-1-yl)-1H-pyrrolo[2,3-c]pyridin-3-yl]piperidine-1-carboxamide; bis(formic acid)], the IC50 in series [2] was greater than 10000 nM; in series [1], 10 to 100 nM. Take `Clc1ccc(-n2c(-c3ccncc3)c(C3CCNCC3)c3ccncc32)cc1` [Example 17, 4-[1-(4-Chlorophenyl)-3-(piperidin-4-yl)-1H-pyrrolo[2,3-c]pyridin-2-yl]pyridine]: the concentration for half-maximal inhibition (IC50) in series [2] (human, pH 7.3) is 1000 to 10000 nM; in series [1], less than 10 nM. The matching figures for `NC(=O)N1CCC(c2c(-c3cncnc3)n(-c3ccc(Cl)cc3)c3cnccc23)CC1` [Example 7, 4-[1-(4-Chlorophenyl)-2-(pyrimidin-5-yl)-1H-pyrrolo[2,3-c]pyridin-3-yl]piperidine-1-carboxamide]: 1000 to 10000 nM and 10 to 100 nM. Consider `Cn1cncc1-c1c(C2CCN(C(N)=O)CC2)c2ccncc2n1-c1ccc(Cl)cc1` [Example 12, 4-[1-(4-Chlorophenyl)-2-(1-methyl-1H-imidazol-5-yl)-1H-pyrrolo[2,3-c]pyridin-3-yl]piperidine-1-carboxamide], for which the results for the IC50 in series [2] and in series [1] were greater than 10000 nM and less than 10 nM, respectively. Take `NC(=O)N1CCC(c2c(-n3ccnn3)n(-c3ccc(Cl)cc3)c3cnccc23)CC1` [Example 15, 4-[1-(4-Chlorophenyl)-2-(1H-1,2,3-triazol-1-yl)-1H-pyrrolo[2,3-c]pyridin-3-yl]piperidine-1-carboxamide]: the 50% inhibitory concentration (IC50) in series [1] lay within 100 to 350 nM. With `NC(=O)N1CCC(c2c(-c3cccnc3)n(-c3ccc(Cl)cc3)c3cnccc23)CC1` [Example 2, 4-[1-(4-Chlorophenyl)-2-(pyridin-3-yl)-1H-pyrrolo[2,3-c]pyridin-3-yl]piperidine-1-carboxamide; formic acid], the IC50 in series [2] (human, pH 7.3) is 1000 to 10000 nM; in series [1], 10 to 100 nM.
